Assays:
[1] = system: VSMCs; conditions: Li Hui et al. 2010; cited from earlier work
[2] = system: primary smooth muscle cells of porcine coronary vessels; assay: In vitro effect of arsenic trioxide on primary porcine coronary vascular smooth muscle cells (total cell number); assay type: cell-based
Description: (§1) FIGS. 1 and 2 show the effects of arsenic trioxide on primary smooth muscle cells and primary endothelial cells of porcine coronary vessels in in vitro experiments. In the figures, the vertical axis represents the total number of cells in the wells of the culture plate, and the horizontal axis represents the concentration of the arsenic trioxide solution. Each curve represents the effect of arsenic trioxide at various concentrations on apoptosis (decrease in total number of cells) at a given time. […] However, for smooth muscle cells, cells apoptosis began even at low concentrations (3 μM) from Day 2 (FIG. 1). […] Arsenic trioxide may induce apoptosis of smooth muscle cells while having poor inhibitory effect on endothelial cells or even promoting their growth.

[3] = system: primary endothelial cells of porcine coronary vessels; assay: In vitro effect of arsenic trioxide on primary porcine coronary endothelial cells (total cell number); assay type: cell-based
Description: as §1

[4] = cited from earlier work

arsenic trioxide
mitochondrial transmembrane potential (Δψm) [1]: could induce a decrease of mitochondrial transmembrane potential | concentration of arsenic trioxide at which smooth muscle cell apoptosis began ([2]; from Day 2, decrease in total number of cells (FIG. 1)): 3 µM | pro-apoptotic effect on smooth muscle cells ([2]; when it reaches a certain dose): strong pro-apoptotic effect | pro-apoptotic effect on endothelial cells [3]: not obvious | proliferation of endothelial cells ([3]; FIG. 2): promoting proliferation of endothelial cell to a certain extent | effect on endothelial cells ([3]; at a concentration of 12 μM or below (FIG. 2)): little effect | effect on endothelial cell growth ([3]; first to the third day upon drug action): stimulation of growth | solubility in common solvents ([4]; common (organic) solvents such as ethanol): cannot be dissolved | solubility in water ([4]; only one crystal form out of three): slightly soluble

From patent US20200384161A1, “COMPOSITE ANTI-RESTENOSIS DRUG FOR CORONARY DRUG-ELUTING STENT AND CONTROLLED RELEASE SYSTEM THEREOF” (XINXIN MEDICAL TECHNOLOGY (SHANGHAI) CO. LTD, priority 2017, published 2020)
